The values that follow come from patent US4740233A, “Substituted 1,2,4-triazolo[1,5-a]-pyrimidine-2-sulfonamides and compositions and methods of controlling undesired vegetation and suppressing the nitrification of ammonium nitrogen in soil” (The Dow Chemical Company, priority 1986, dated 1988).

One test relates to cotton. Description: Preemergent control of plant species. Particulars: Gossypium hirsutum, pre-emergence, 336 h; 0.25 lb/acre; read-out: percent preemergent control. In kind it is in vivo, Gossypium spp. A digest of the protocol:
(§1)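 Seeds sown in agricultural soil beds in a greenhouse received aqueous emulsions of test compositions applied uniformly over the bed surface at the listed rates; water-treated beds served as control. After two weeks under greenhouse growth conditions, control was scored as growth reduction versus untreated plants of the same species.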

The next test has as its system rape. Description: Preemergent control of plant species. Conditions: Brassica napus, pre-emergence, 336 h; 0.25 lb/acre; read-out: percent preemergent control. Format: in vivo, Brassica napus. A digest of the protocol:
as §1

The next test deals with soybean. The test can be described thus: Preemergent control of plant species. In kind it is in vivo, Glycine max. Conditions: Glycine max, pre-emergence, 336 h; 0.25 lb/acre; read-out: percent preemergent control. In short, it runs like this: as §1
For a further test, the system named is sugar beet. The test can be described thus: Preemergent control of plant species. Format: in vivo, Beta saccharifera. Particulars: Beta vulgaris, pre-emergence, 336 h; 0.25 lb/acre; read-out: percent preemergent control. A digest of the protocol: as §1
For the next test, the system named is jimsonweed. The test can be described thus: Preemergent control of plant species. In kind it is in vivo, Datura stramonium. Conditions: Datura stramonium, pre-emergence, 336 h; 0.25 lb/acre; read-out: percent preemergent control. A digest of the protocol:
as §1

The test system of another test is annual morning glory. Description: Preemergent control of plant species. Conditions: Ipomoea, pre-emergence, 336 h; 0.25 lb/acre; read-out: percent preemergent control. Format: in vivo, Ipomoea spp. In short, it runs like this: as §1
For another test, the system named is velvetleaf. Description: Preemergent control of plant species. Conditions: Abutilon theophrasti, pre-emergence, 336 h; 0.25 lb/acre; read-out: percent preemergent control. Format: in vivo, Abutilon theophrasti. A digest of the protocol:
as §1

Another test has as its system corn. Description: Preemergent control of plant species. In kind it is in vivo, Zea mays. Particulars: Zea mays, pre-emergence, 336 h; 0.25 lb/acre; read-out: percent preemergent control. A digest of the protocol: as §1
The next test concerns rice. The test can be described thus: Preemergent control of plant species. Format: in vivo, Oryza sativa. Particulars: Oryza sativa, pre-emergence, 336 h; 0.25 lb/acre; read-out: percent preemergent control. In short, it runs like this:
as §1

A further test relates to sorghum. Description: Preemergent control of plant species. In kind it is in vivo, Sorghum vulgare. Particulars: Sorghum, pre-emergence, 336 h; 0.25 lb/acre; read-out: percent preemergent control. In short, it runs like this: as §1
For a further test, the system named is wheat. Description: Preemergent control of plant species. Format: in vivo, Triticum aestivum. Particulars: Triticum aestivum, pre-emergence, 336 h; 0.25 lb/acre; read-out: percent preemergent control. In short, it runs like this:
as §1

A further test concerns barnyardgrass. The test can be described thus: Preemergent control of plant species. In kind it is in vivo, Echinochloa crusgalli. Conditions: Echinochloa crus-galli, pre-emergence, 336 h; 0.25 lb/acre; read-out: percent preemergent control. In short, it runs like this: as §1
The next test relates to johnson grass. Description: Preemergent control of plant species. Format: in vivo, Sorghum halepense. Particulars: Sorghum halepense, pre-emergence, 336 h; 0.25 lb/acre; read-out: percent preemergent control. A digest of the protocol:
as §1

In another test the test system is yellow foxtail. Description: Preemergent control of plant species. Format: in vivo, Setaria lutescens. Particulars: Setaria, pre-emergence, 336 h; 0.25 lb/acre; read-out: percent preemergent control. A digest of the protocol:
as §1

The next test relates to yellow nutsedge. Description: Preemergent control of plant species. Format: in vivo, Cyperus esculentus. Conditions: Cyperus, pre-emergence, 336 h; 0.25 lb/acre; read-out: percent preemergent control. In short, it runs like this:
as §1

The next test deals with corn (First In). Description: Gametocidal activity in corn, postemergent application. Particulars: sprayed at three leaf stage. In kind it is in vivo. On the procedure:
The compounds of this invention are also plant gametocides depending on the dosage and timing of application and the species of plant to which the compounds are applied. For example, certain of the compounds were sprayed on corn seedlings at the three leaf stage of growth, and the seedlings were returned to the greenhouse for subsequent growth and observation. The corn variety was "First In". The chemicals were dissolved in acetone, and the acetone solution was diluted with water containing Tween 20 wetting agent such that the final spray solution contained 50% acetone and 0.1% Tween 20 in water. […] Tabulated below are data which illustrate the use of the compounds of this invention as plant gametocides in corn.

Turning to `CC(=O)N(c1c(F)cccc1F)S(=O)(=O)c1nc2nc(C)ccn2n1` [Compound 275], the plant injury at 280.212 g/ha with cotton was 100%; with rape, 100%; with soybean, 20%; in the test with sugar beet, 100%; with corn it was 80%; with rice, 90%. Also, the plant injury at 280.212 g/ha in the test on sorghum and with wheat was 100% each time. Also, the pest or weed control at 280.212 g/ha in the test with jimsonweed was 100%; in the test with annual morning glory, 90%; in the test with velvetleaf, 100%; with barnyardgrass, 100%; in the test with johnson grass, 100%; in the test with yellow foxtail, 100%. Further, in the test with yellow nutsedge, the pest or weed control at 280.212 g/ha was determined as 100%. Besides, the “concentration required to produce 100% control (gametocidal activity)” value in the test with corn (First In) stood at 400 ppm.
`CCCCC(=O)N(c1c(F)cccc1F)S(=O)(=O)c1nc2nc(C)ccn2n1` [Compound 279]: the plant injury at 280.212 g/ha is 90% in the test with cotton; 100% with rape; 20% with soybean; 100% in the test on sugar beet; 80% in the test with corn; 100% with rice. For the same molecule, the plant injury at 280.212 g/ha in the test on sorghum is 100%; with wheat, 90%. The pest or weed control at 280.212 g/ha with jimsonweed turned out to be 100%; in the test on annual morning glory, 90%; in the test on velvetleaf, 100%; in the test with barnyardgrass, 100%; in the test with johnson grass, 100%; with yellow foxtail it was 100%. Besides, the pest or weed control at 280.212 g/ha in the test with yellow nutsedge stood at 100%. The “concentration required to produce 100% control (gametocidal activity)” value with corn (First In) was determined as 50 ppm.
Take `Cc1ccn2nc(S(=O)(=O)N(C(=O)C(C)C)c3c(F)cccc3F)nc2n1` [Compound 277]: the plant injury at 280.212 g/ha in the test with cotton came out at 50%; in the test on rape, 100%; in the test with soybean it was 20%; in the test with sugar beet it was 100%; with corn, 40%; in the test on rice, 80%. For the same molecule, the plant injury at 280.212 g/ha with sorghum was 90%; in the test with wheat, 80%. For the same molecule, the pest or weed control at 280.212 g/ha in the test on jimsonweed came out at 100%; in the test with annual morning glory, 30%; in the test on velvetleaf, 100%; in the test with barnyardgrass, 90%; in the test with johnson grass, 100%; in the test with yellow foxtail it was 100%. In addition, the pest or weed control at 280.212 g/ha in the test with yellow nutsedge was 100%. In the test with corn (First In), the “concentration required to produce 100% control (gametocidal activity)” value was 200 ppm.
